# Where a name gives a salt, the structure may show the parent alone.
# Experiments:
# Type in all cases: in vivo
# [1] = test system: human gastric cancer (SGC-7901) transplanted tumor; assay: Zebrafish human gastric cancer (SGC-7901) transplanted tumor model; details: SGC-7901, 50 μM, 2 days
# Text: Human gastric cancer (SGC-7901) cells were labeled with a red fluorescent dye (CM-Dil), and transplanted into zebrafish yolk sacs by microinjection, with about 200 cells being transplanted per zebrafish, so as to establish the zebrafish human gastric cancer transplanted tumor model.
# Human gastric cancer (SGC-7901) cells were labeled with CM-Dil, and transplanted into 2 dpf wild type AB strain zebrafish yolk sacs by microinjection, with about 200 cells per zebrafish, so as to establish a zebrafish human gastric cancer (SGC-7901) transplanted model; and the zebrafishes injected with the SGC-7901 cells were fed at 35° C. until 3 dpf.
# Zebrafishes with better consistence in transplanted tumor cells were picked out under a microscope, randomly assigned to a 6-well plate, and were given in a water-dissolving administration manner respectively with the samples at concentrations respectively of 28, 83 and 250 μg/mL and the positive control drug cis-platinum at a concentration of 50 μM; and meanwhile a model control group was set, where there were 30 zebrafishes per well, and the volume of each well was 5 mL. […] The inhibitory effects of samples on the zebrafish gastric cancer (SGC-7901) transplanted tumor were respectively evaluated with the fluorescence intensities, and the tumor inhibition effect was calculated using the following equation. […]
# [2] = test system: human lung adenocarcinoma (A549) transplanted tumor; assay: Zebrafish human lung adenocarcinoma (A549) transplanted tumor model; details: A549, 50 μM, 2 days
# Text: Human lung adenocarcinoma (A549) cells were labeled with a red fluorescent dye (CM-Dil), and transplanted into zebrafish yolk sacs by microinjection, with about 200 cells being transplanted per zebrafish, so as to establish a zebrafish human lung adenocarcinoma transplanted tumor model.
# Human lung adenocarcinoma (A549) cells were labeled with CM-Dil, and transplanted into 2 dpf wild type AB strain zebrafish yolk sacs by microinjection, with about 200 cells being transplanted per zebrafish, so as to establish a zebrafish human lung adenocarcinoma (A549) transplanted model; and the zebrafishes injected with the A549 cells were fed at 35° C. until 3 dpf.
# (§1) Zebrafishes with better consistence in transplanted tumor cells were picked out under a microscope, randomly assigned to a 6-well plate, and were given in a water-dissolving administration manner respectively with the samples at concentrations respectively of 1, 3 and 9 μg/mL and the positive control drug cis-platinum at a concentration of 50 μM; and meanwhile a model control group was set, where there were 30 zebrafishes per well (concentration group), and the volume of each well was 5 mL. […] The inhibitory effect of the sample No. 3 on the zebrafish lung adenocarcinoma (A549) transplanted tumor was evaluated with the fluorescence intensities, and the tumor inhibition effect was calculated using the following equation. […]
# [3] = test system: human lymphatic cancer (Ramos) transplanted tumor; assay: Zebrafish human lymphatic cancer (Ramos) transplanted tumor model; details: Danio rerio, 48 h, 2 days, read-out: Inhibition Effect
# Text: Human lymphatic cancer (Ramos) cells were labeled with a red fluorescent dye (CM-Dil), and transplanted into zebrafish yolk sacs by microinjection, with about 200 cells being transplanted per zebrafish, so as to establish a zebrafish human lymphatic cancer transplanted tumor model.
# Human lymphatic cancer (Ramos) cells were labeled with CM-Dil, and transplanted into 2 dpf wild type AB strain zebrafish yolk sacs by microinjection, with about 200 cells being transplanted per zebrafish, so as to establish a zebrafish human lymphatic cancer transplanted model; and the zebrafishes injected with the human lymphatic cancer cells were fed at 35° C. until 3 dpf.
# as §1, with “vincristine” for “cis-platinum”, “5” for “50”, “sample” for “sample No. 3”, “lymphatic cancer (Ramos)” for “lung adenocarcinoma (A549)”
SMILES,Inhibition Effect [1] [%],Inhibition Effect [2] [%],inhibition at 5 µM [3] [%]
"N.N.[Cl][Pt][Cl] [cis-platinum, Cis-platinum]",37,29,
"CC[C@]1(O)C[C@H]2CN(CCc3c([nH]c4ccccc34)[C@@](C(=O)OC)(c3cc4c(cc3OC)N(C=O)[C@H]3[C@@](O)(C(=O)OC)[C@H](OC(C)=O)[C@]5(CC)C=CCN6CC[C@]43[C@@H]65)C2)C1 [vincristine, Vincristine sulfate]",,,35
